In patent US20110059114A1, “Compositions and Methods for the Treatment of Radioresistant Glioma Stem Cells” (DUKE UNIVERSITY, priority 2009, published 2011):

Assays:
[1] = tested on: T4302 CD133+ glioma stem cells; assay: Growth curve, CellTiter-Glo Luminescent Cell Viability Assay; type: cell-based, human; details: without radiation treatment, day five; 2 μM DAPT or 0.5 μM L685,458
Description: (§1) FIG. 1 is a series of graphs illustrating that γ-secretase inhibitors reduce cell growth and clonogenic survival of glioma stem cells following radiation. (A) T4302 CD133+ glioma stem cells were transfected with a Notch-responsive luciferase reporter (RBP-JK reporter) pre-mixed with the vector directing constitutive expression of Renilla luciferase. Cells were left unirradiated or irradiated at 3 Gy, and were then collected to measure luciferase activities at time points as indicated. […] The relative mRNA levels of Hes2 were determined by quantitative real-time PCR at the time points as indicated. […] Total viable cell numbers were then determined by the CellTiter-Glo Luminescent Cell Viability Assay (Promega) for the following five days. […] Cells were then plated to form neurospheres, and the surviving fractions were determined as described in methods. […] (F,G) Neurosphere formation of T3359 and T4105 CD 133+ cells treated with GSIs alone, 3-Gy radiation alone, or the combination was determined as described in FIG. 1E. *: p<0.05 by Student's t-test; #: p<0.001 by one-way ANOVA.
Growth Curve, caspase 3/7 assay, and clonogenic survival assay. […] Cell number was measured for 5 days using the CellTiter-Glo assay kit (Promega, Madison, […].). […]

T4302 CD133+ cells [2] = assay: Annexin V staining, flow cytometry; type: cell-based, human
Experimental: (§2) FIG. 2 is a series of graphs illustrating that γ-secretase inhibitors enhance radiation-induced cell death in glioma stem cells. (A) T4302 CD 133+ cells were pre-treated with DAPT or L685,458 for 4 hours and irradiated at 3 Gy. Percentage of dead cells was determined by trypan blue exclusion assay at 48 hours after radiation exposure. (B) T4302 CD 133+ cells were treated with GSIs ±radiation as indicated. Cells were then plated at 3000 cells per well in 96-well plates. Relative caspase 3/7 activities were determined by normalizing caspase activities to the corresponding cell titers. (C) T4302 CD 133+ cells were treated as described in FIG. 2A. 24 or 48 hours after radiation exposure, cells were labeled with FITC-conjugated Annexin V staining kit (BD Sciences) according to manufacturer's instructions and analyzed by flow cytometry. (D) T4302 CD 133+ cells were pre-treated with 2 μM DAPT for 4 hours, and were left unirradiated or irradiated at 1, 2 or 3 Gy. Relative caspase 3/7 activities were determined at 72 hours after radiation. (E) T4302 CD133+ cells were pre-treated with DAPT at indicated concentrations for 4 hours and irradiated at 3 Gy. Relative caspase activities were determined at 48 or 72 hours after radiation. *: p<0.01 by Student's t-test; #: p<0.01 by one-way ANOVA.

Chk1 and Chk2 = assay: Immunoblotting of activating phosphorylation of Chk1 and Chk2; type: cell-based, human; details: following radiation, pretreated 24 hours
Experimental: (A) T4302 CD133+ cells were pretreated with DPAT or L685,458 for 24 hours prior radiation. One hour after radiation exposure, cells were harvested. The levels of activating phosphorylation of Chk1 and Chk2 were assessed by immunoblotting. (B) T4302 CD133+ cells were treated with 2 μM DAPT at 4, 24 hours prior to radiation (−24 hrs, or -4 hrs), or at 0, 4, 24 hours after radiation. Relative caspase 3/7 activities were measured 3 days after radiation exposure. *: p<0.001 by Student's t-test.
Antibodies, DNA constructs, lentiviruses and other reagents. The antibodies purchased from Cell Signaling Technology (Danvers, M A) include phosphor-S296-Chk1 (2349), total Chk1 (2345), phosphor-T68-Chk2 (2661), total Chk2 (2662), phospho-5473 Akt (#9271), total Akt (#9272), PTEN (#9556), phospho-S15-p53 (#9286), Bcl-2 (#2870), Bcl-xL (#2764), Mcl-1 (#4572), Puma (#4976). Other antibodies used in this study are p53 antibody (#sc-126, Santa Cruz Biotechnology, Santa Cruz, Calif.), and actin antibody (Millipore, Billerica, Mass.). The pcDNA3-Notch1 construct was kindly provided by Dr. Spyros Artavanis-Tsakonas, Harvard University. The coding sequences of intracellular domain of Notch1 (amino acid residues 1744-2556) was amplified by PCR and subcloned into the lentiviral vector pCDH-CMV-EF1-puro (System Biosciences, Mountain View, Calif.) through the EcoRI and NotI sites. […]

T4302 CD133+ cells [3] = assay: Trypan blue exclusion assay; type: cell-based, human; details: two days after 3-Gy radiation
Experimental: as §2

Notch signaling = assay: Notch-responsive luciferase reporter (RBP-Jκ reporter) assay; type: cell-based, human; details: T4302 CD133+ cells; 2 μM DAPT or 0.5 μM L685,458 over night
Description: as §1
Luciferase assay. […] The luciferase activities were determined by the Dual-luciferase assay system (Promega).

[4] = tested on: CD133+ cells enriched from medulloblastoma cell lines; details: cited from earlier work

SMILES | sham-treated cells more than GSI-treated cells (total cell number) [1] [%] | Annexin V-positive labeled cells (T4302 CD133+ cells [2]; 24 hours following 3 Gy radiation) | Annexin V-positive labeled cells (T4302 CD133+ cells [2]; 48 hours following 3 Gy radiation) | activating phosphorylation of Chk1 or Chk2 (Chk1 and Chk2) | dead cells (T4302 CD133+ cells [3]) [%] | Notch signaling in glioma stem cells (Notch-responsive luciferase reporter) (Notch signaling) | apoptosis and differentiation in CD133+ cells [4] | apoptosis in nestin-expressing cells in comparison to nestin-negative cells [4] [fold] | tumorigenic capacity of CD133+ cells [4]
CC(C)C[C@H](NC(=O)[C@H](Cc1ccccc1)C[C@@H](O)[C@H](Cc1ccccc1)NC(=O)OC(C)(C)C)C(=O)N[C@@H](Cc1ccccc1)C(N)=O [L685,458] | 60 | not obvious | significantly increased | Neither of DAPT or L685,458 significantly altered | 60 | blocked |  |  | 
O=S(=O)(NC1[C@@H]2CC[C@H]1Cc1ccccc1C2)c1cccs1 (stereo partly drawn) [GSI-18] |  |  |  |  |  |  | induces apoptosis and differentiation | 10 | impairs the tumorigenic capacity
